{"source": "paper PMC9954146", "about": "“Anti-Leukaemic Activity of Rilpivirine Is Mediated by Aurora A Kinase Inhibition” (Cancers, 2023)", "experiment_in_all_cases": "Kinase panel", "format_in_all_cases": "biochemical", "details_in_all_cases": "read-out: % Residual Activity", "key": {"ACTR2(h)": {"molecular_target": "T1, ACTR2(h) (Homo sapiens, UniProt P27037)", "T1 construct": "purchased Eurofins (KinaseProfiler)", "method_in_brief": "(§1)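 Selectivity panel (kinome-wide), rilpivirine as test compound. Readout: radiolabel incorporation. ATP = Km of the respective kinase. Ki calculated from IC50 (Cheng–Prusoff).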"}, "Abl(m)": {"molecular_target": "T2, Abl(m) (Mus musculus, UniProt P00520)", "T2 construct": "purchased Eurofins (KinaseProfiler)", "method_in_brief": "as §1"}, "BrSK2(h)": {"molecular_target": "T3, BrSK2(h) (Homo sapiens, UniProt Q8IWQ3)", "T3 construct": "purchased Eurofins (KinaseProfiler)", "method_in_brief": "as §1"}, "CDK5/p35(h)": {"molecular_target": "T4, CDK5/p35(h) (Homo sapiens, UniProt Q00535)", "T4 construct": "purchased Eurofins (KinaseProfiler)", "method_in_brief": "as §1"}, "CaMKIV(h)": {"molecular_target": "T5, CaMKIV(h) (Homo sapiens, UniProt Q16566)", "T5 construct": "purchased Eurofins (KinaseProfiler)", "method_in_brief": "as §1"}, "CaMKK2(h)": {"molecular_target": "T6, CaMKK2(h) (Homo sapiens, UniProt Q96RR4)", "T6 construct": "purchased Eurofins (KinaseProfiler)", "method_in_brief": "as §1"}, "DAPK1(h)": {"molecular_target": "T7, DAPK1(h) (Homo sapiens, UniProt P53355)", "T7 construct": "purchased Eurofins (KinaseProfiler)", "method_in_brief": "as §1"}, "DCAMKL2(h)": {"molecular_target": "T8, DCAMKL2(h) (Homo sapiens, UniProt Q8N568)", "T8 construct": "purchased Eurofins (KinaseProfiler)", "method_in_brief": "as §1"}, "DDR2(h)": {"molecular_target": "T9, DDR2(h) (Homo sapiens, UniProt Q16832)", "T9 construct": "purchased Eurofins (KinaseProfiler)", "method_in_brief": "as §1"}, "EphA5(h)": {"molecular_target": "T10, EphA5(h) (Homo sapiens, UniProt P54756)", "T10 construct": "purchased Eurofins (KinaseProfiler)", "method_in_brief": "as §1"}, "EphA7(h)": {"molecular_target": "T11, EphA7(h) (Homo sapiens, UniProt Q15375)", "T11 construct": "purchased Eurofins (KinaseProfiler)", "method_in_brief": "as §1"}, "FGFR2(h)": {"molecular_target": "T12, FGFR2(h) (Homo sapiens, UniProt P21802)", "T12 construct": "purchased Eurofins (KinaseProfiler)", "T12 sequence (P21802 22-821)": "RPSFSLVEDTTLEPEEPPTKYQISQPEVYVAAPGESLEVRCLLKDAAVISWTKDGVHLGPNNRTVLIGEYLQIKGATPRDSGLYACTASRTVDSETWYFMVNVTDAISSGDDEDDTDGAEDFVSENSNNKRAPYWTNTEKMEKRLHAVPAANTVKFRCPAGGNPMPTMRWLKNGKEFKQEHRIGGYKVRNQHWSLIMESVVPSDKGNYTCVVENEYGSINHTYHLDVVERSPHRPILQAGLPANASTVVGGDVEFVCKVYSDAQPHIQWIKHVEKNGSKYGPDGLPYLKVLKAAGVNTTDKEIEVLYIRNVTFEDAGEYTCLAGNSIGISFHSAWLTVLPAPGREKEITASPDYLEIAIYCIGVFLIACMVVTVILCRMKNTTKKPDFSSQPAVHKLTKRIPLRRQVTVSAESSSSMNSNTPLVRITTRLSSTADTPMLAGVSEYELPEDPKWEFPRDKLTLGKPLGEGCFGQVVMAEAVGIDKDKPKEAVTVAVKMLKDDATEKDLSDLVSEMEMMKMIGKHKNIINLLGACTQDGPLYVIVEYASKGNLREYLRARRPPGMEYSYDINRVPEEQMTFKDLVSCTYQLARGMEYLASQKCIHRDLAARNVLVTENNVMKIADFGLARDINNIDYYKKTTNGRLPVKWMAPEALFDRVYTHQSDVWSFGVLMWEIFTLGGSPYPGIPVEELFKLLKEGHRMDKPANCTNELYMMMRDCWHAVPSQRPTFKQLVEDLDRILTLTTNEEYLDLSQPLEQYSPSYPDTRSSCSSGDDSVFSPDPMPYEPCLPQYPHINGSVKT", "method_in_brief": "as §1"}, "HIPK2(h)": {"molecular_target": "T13, HIPK2(h) (Homo sapiens, UniProt Q9H2X6)", "T13 construct": "purchased Eurofins (KinaseProfiler)", "method_in_brief": "as §1"}, "JNK1α1(h)": {"molecular_target": "T14, JNK1α1(h) (Homo sapiens, UniProt P45983)", "T14 construct": "purchased Eurofins (KinaseProfiler)", "T14 sequence (P45983 1-384 isoform P45983-2)": "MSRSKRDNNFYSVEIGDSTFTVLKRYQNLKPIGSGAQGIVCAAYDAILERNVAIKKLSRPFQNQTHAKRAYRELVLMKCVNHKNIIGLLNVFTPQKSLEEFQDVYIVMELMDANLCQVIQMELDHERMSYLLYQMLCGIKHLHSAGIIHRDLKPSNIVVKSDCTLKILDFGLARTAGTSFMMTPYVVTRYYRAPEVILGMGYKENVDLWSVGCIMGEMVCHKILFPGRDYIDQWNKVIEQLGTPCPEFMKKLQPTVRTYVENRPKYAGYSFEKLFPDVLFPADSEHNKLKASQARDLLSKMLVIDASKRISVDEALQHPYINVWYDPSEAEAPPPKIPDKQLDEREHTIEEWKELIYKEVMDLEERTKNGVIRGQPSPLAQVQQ", "method_in_brief": "as §1"}, "LOK(h)": {"molecular_target": "T15, LOK(h) (Homo sapiens, UniProt O94804)", "T15 construct": "purchased Eurofins (KinaseProfiler)", "method_in_brief": "as §1"}, "LTK(h)": {"molecular_target": "T16, LTK(h) (Homo sapiens, UniProt P29376)", "T16 construct": "purchased Eurofins (KinaseProfiler)", "method_in_brief": "as §1"}, "MARK4(h)": {"molecular_target": "T17, MARK4(h) (Homo sapiens, UniProt Q96L34)", "T17 construct": "purchased Eurofins (KinaseProfiler)", "method_in_brief": "as §1"}, "MELK(h)": {"molecular_target": "T18, MELK(h) (Homo sapiens, UniProt Q14680)", "T18 construct": "purchased Eurofins (KinaseProfiler)", "method_in_brief": "as §1"}, "MYLK2(h)": {"molecular_target": "T19, MYLK2(h) (Homo sapiens, UniProt Q9H1R3)", "T19 construct": "purchased Eurofins (KinaseProfiler)", "method_in_brief": "as §1"}, "Met(D1246H)(h)": {"molecular_target": "T20, Met(D1246H)(h) (Homo sapiens, UniProt P08581, D1228H)", "T20 construct": "purchased Eurofins (KinaseProfiler)", "method_in_brief": "as §1"}, "NEK2(h)": {"molecular_target": "T21, NEK2(h) (Homo sapiens, UniProt P51955)", "T21 construct": "purchased Eurofins (KinaseProfiler)", "method_in_brief": "as §1"}, "NUAK2(h)": {"molecular_target": "T22, NUAK2(h) (Homo sapiens, UniProt Q9H093)", "T22 construct": "purchased Eurofins (KinaseProfiler)", "method_in_brief": "as §1"}, "[1]": {"molecular_target": "T23, PI3 Kinase (p110a(E545K)/p85a)(m) (Mus musculus, UniProt P42337, E545K)", "T23 construct": "purchased Eurofins (KinaseProfiler)", "T23 sequence (P42337 whole entry E545K)": "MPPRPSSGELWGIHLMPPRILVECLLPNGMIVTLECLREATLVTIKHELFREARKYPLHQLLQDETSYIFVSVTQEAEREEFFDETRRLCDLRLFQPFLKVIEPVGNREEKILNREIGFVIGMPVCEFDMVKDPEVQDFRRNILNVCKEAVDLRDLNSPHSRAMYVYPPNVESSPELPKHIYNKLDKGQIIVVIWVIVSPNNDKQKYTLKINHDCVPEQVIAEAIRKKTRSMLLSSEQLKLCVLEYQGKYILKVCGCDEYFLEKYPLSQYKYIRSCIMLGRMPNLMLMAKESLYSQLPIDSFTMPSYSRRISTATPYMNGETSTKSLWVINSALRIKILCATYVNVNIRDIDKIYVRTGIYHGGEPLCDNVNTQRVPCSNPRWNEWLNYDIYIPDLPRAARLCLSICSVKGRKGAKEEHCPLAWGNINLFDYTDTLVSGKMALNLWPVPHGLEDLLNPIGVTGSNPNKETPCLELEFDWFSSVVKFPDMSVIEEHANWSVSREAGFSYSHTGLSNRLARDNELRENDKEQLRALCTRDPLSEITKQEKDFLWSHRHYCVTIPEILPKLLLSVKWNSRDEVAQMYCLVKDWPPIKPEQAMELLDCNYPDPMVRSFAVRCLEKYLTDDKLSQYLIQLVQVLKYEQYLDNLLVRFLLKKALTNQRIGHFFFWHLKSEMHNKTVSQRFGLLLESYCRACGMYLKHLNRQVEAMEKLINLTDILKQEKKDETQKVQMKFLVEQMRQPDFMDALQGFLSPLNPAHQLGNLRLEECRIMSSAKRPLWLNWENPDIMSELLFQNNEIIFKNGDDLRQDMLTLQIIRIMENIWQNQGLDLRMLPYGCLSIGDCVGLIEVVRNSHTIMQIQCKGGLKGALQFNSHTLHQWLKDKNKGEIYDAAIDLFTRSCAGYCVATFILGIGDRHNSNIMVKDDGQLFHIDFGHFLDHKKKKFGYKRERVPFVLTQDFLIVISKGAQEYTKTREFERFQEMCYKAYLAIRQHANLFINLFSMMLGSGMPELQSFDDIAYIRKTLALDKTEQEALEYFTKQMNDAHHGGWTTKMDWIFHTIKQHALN", "T23 sequence (P26450 2-724 partner)": "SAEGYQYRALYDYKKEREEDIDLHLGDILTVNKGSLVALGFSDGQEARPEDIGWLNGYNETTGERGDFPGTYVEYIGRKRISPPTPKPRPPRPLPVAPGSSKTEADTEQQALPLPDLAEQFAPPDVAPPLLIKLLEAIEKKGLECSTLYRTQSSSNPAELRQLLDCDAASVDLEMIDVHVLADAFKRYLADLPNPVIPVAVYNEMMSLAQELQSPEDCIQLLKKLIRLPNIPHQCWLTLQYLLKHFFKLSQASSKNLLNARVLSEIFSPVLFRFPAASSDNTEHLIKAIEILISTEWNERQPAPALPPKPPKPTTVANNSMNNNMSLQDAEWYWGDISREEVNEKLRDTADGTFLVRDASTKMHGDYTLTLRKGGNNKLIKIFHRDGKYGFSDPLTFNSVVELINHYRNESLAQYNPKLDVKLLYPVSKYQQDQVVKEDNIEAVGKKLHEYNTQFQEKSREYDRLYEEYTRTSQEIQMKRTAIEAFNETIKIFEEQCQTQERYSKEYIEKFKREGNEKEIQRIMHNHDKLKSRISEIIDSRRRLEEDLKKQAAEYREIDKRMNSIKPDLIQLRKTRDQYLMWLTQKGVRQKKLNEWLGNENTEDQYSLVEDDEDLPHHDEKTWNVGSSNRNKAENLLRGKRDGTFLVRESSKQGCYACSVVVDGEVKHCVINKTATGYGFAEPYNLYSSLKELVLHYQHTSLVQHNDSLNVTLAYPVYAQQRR", "method_in_brief": "as §1"}, "[2]": {"molecular_target": "PI3 Kinase (p110aH1047R)/p85a)(h) (Homo sapiens, UniProt P42336, H1047R)", "sequence (P42336 whole entry H1047R)": "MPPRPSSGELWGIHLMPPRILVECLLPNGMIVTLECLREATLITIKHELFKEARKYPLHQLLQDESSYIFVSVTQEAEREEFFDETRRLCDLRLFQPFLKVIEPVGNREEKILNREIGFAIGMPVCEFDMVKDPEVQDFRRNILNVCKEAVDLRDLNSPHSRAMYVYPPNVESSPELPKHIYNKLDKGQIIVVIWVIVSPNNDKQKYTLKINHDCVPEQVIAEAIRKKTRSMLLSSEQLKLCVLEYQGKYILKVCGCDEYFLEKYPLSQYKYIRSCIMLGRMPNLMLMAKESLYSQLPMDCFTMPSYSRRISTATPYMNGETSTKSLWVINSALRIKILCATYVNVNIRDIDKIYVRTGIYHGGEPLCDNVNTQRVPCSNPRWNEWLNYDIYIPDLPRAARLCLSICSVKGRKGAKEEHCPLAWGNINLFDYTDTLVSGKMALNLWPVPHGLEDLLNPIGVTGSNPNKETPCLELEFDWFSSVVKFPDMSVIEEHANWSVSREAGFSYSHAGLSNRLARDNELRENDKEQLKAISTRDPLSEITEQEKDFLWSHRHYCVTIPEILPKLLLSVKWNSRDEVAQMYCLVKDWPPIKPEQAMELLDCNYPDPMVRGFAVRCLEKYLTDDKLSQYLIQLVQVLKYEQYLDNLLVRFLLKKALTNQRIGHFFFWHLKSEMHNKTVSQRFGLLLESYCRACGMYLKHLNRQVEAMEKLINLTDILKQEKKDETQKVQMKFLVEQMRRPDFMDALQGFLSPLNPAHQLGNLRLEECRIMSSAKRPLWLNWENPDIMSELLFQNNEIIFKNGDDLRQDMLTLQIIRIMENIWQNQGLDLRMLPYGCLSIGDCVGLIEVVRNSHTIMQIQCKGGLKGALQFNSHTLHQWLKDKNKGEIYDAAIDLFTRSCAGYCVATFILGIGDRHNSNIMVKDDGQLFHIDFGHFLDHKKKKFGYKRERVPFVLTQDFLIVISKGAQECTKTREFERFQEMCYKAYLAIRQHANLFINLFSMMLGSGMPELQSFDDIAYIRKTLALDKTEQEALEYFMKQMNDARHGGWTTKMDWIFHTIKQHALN", "sequence (P27986 whole entry partner)": "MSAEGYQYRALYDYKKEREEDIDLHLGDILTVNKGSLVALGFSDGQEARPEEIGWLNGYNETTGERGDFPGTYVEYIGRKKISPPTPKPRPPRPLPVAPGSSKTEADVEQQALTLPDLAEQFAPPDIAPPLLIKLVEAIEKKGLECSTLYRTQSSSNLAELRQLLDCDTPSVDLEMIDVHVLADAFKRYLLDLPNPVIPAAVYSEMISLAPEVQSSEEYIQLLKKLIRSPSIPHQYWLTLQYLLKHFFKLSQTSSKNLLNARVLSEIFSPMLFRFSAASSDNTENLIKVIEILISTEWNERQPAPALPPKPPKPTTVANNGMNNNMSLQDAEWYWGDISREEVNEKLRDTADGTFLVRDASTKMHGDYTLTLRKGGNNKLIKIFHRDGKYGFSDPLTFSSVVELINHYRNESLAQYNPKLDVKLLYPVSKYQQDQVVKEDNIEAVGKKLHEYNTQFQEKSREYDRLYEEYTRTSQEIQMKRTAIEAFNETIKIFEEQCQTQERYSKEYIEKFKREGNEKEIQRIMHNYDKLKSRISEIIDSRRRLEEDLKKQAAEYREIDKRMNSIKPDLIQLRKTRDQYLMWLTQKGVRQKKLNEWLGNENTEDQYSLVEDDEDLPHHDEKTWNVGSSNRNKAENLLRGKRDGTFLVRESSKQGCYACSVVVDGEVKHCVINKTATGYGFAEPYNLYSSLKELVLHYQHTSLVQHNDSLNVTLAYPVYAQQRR", "method_in_brief": "as §1"}, "PI3KC2a(h)": {"molecular_target": "PI3KC2a(h) (Homo sapiens, UniProt O00443)", "method_in_brief": "as §1"}, "PKCα(h)": {"molecular_target": "T24, PKCα(h) (Homo sapiens, UniProt P17252)", "T24 construct": "purchased Eurofins (KinaseProfiler)", "method_in_brief": "as §1"}, "Plk3(h)": {"molecular_target": "T25, Plk3(h) (Homo sapiens, UniProt Q9H4B4)", "T25 construct": "purchased Eurofins (KinaseProfiler)", "method_in_brief": "as §1"}, "Rsk2(h)": {"molecular_target": "T26, Rsk2(h) (Homo sapiens, UniProt P51812)", "T26 construct": "purchased Eurofins (KinaseProfiler)", "method_in_brief": "as §1"}, "SAPK2a(h)": {"molecular_target": "T27, SAPK2a(h) (Homo sapiens, UniProt Q16539)", "T27 construct": "purchased Eurofins (KinaseProfiler)", "method_in_brief": "as §1"}, "SAPK4(h)": {"molecular_target": "T28, SAPK4(h) (Homo sapiens, UniProt O15264)", "T28 construct": "purchased Eurofins (KinaseProfiler)", "method_in_brief": "as §1"}, "TAO3(h)": {"molecular_target": "T29, TAO3(h) (Homo sapiens, UniProt Q9H2K8)", "T29 construct": "purchased Eurofins (KinaseProfiler)", "method_in_brief": "as §1"}, "TRB2(h)": {"molecular_target": "T30, TRB2(h) (Homo sapiens, UniProt Q92519)", "T30 construct": "purchased Eurofins (KinaseProfiler)", "method_in_brief": "as §1"}, "Tie2 (h)": {"molecular_target": "T31, Tie2 (h) (Homo sapiens, UniProt Q02763)", "T31 construct": "purchased Eurofins (KinaseProfiler)", "method_in_brief": "as §1"}, "Tie2(R849W)(h)": {"molecular_target": "T32, Tie2(R849W)(h) (Homo sapiens, UniProt Q02763, R849W)", "T32 construct": "purchased Eurofins (KinaseProfiler)", "method_in_brief": "as §1"}, "TrkA(h)": {"molecular_target": "T33, TrkA(h) (Homo sapiens, UniProt P04629)", "T33 construct": "purchased Eurofins (KinaseProfiler)", "method_in_brief": "as §1"}, "ULK3(h)": {"molecular_target": "T34, ULK3(h) (Homo sapiens, UniProt Q6PHR2)", "T34 construct": "purchased Eurofins (KinaseProfiler)", "method_in_brief": "as §1"}, "WNK4(h)": {"molecular_target": "T35, WNK4(h) (Homo sapiens, UniProt Q96J92)", "T35 construct": "purchased Eurofins (KinaseProfiler)", "method_in_brief": "as §1"}, "ZAK(h)": {"molecular_target": "T36, ZAK(h) (Homo sapiens, UniProt Q9NYL2)", "T36 construct": "purchased Eurofins (KinaseProfiler)", "method_in_brief": "as §1"}}, "data": [{"smiles": "Cc1cc(/C=C/C#N)cc(C)c1Nc1ccnc(Nc2ccc(C#N)cc2)n1", "note": "[rilpivirine, (E)-4-((4-((4-(2-cyanoethenyl)-2,6-dimethylphenyl)amino)pyrimidin-2-yl)amino)benzonitrile]", "values": [{"measurement": "remaining activity at 1 µM", "setting": "ACTR2(h)", "result": 91, "unit": "%"}, {"measurement": "remaining activity at 1 µM", "setting": "Abl(m)", "result": 63, "unit": "%"}, {"measurement": "remaining activity at 1 µM", "setting": "BrSK2(h)", "result": 80, "unit": "%"}, {"measurement": "remaining activity at 1 µM", "setting": "CDK5/p35(h)", "result": 97, "unit": "%"}, {"measurement": "remaining activity at 1 µM", "setting": "CaMKIV(h)", "result": 81, "unit": "%"}, {"measurement": "remaining activity at 1 µM", "setting": "CaMKK2(h)", "result": 109, "unit": "%"}, {"measurement": "remaining activity at 1 µM", "setting": "DAPK1(h)", "result": 83, "unit": "%"}, {"measurement": "remaining activity at 1 µM", "setting": "DCAMKL2(h)", "result": 122, "unit": "%"}, {"measurement": "remaining activity at 1 µM", "setting": "DDR2(h)", "result": 82, "unit": "%"}, {"measurement": "remaining activity at 1 µM", "setting": "EphA5(h)", "result": 79, "unit": "%"}, {"measurement": "remaining activity at 1 µM", "setting": "EphA7(h)", "result": 96, "unit": "%"}, {"measurement": "remaining activity at 1 µM", "setting": "FGFR2(h)", "result": 95, "unit": "%"}, {"measurement": "remaining activity at 1 µM", "setting": "HIPK2(h)", "result": 85, "unit": "%"}, {"measurement": "remaining activity at 1 µM", "setting": "JNK1α1(h)", "result": 90, "unit": "%"}, {"measurement": "remaining activity at 1 µM", "setting": "LOK(h)", "result": 101, "unit": "%"}, {"measurement": "remaining activity at 1 µM", "setting": "LTK(h)", "result": 78, "unit": "%"}, {"measurement": "remaining activity at 1 µM", "setting": "MARK4(h)", "result": 88, "unit": "%"}, {"measurement": "remaining activity at 1 µM", "setting": "MELK(h)", "result": 56, "unit": "%"}, {"measurement": "remaining activity at 1 µM", "setting": "MYLK2(h)", "result": 79, "unit": "%"}, {"measurement": "remaining activity at 1 µM", "setting": "Met(D1246H)(h)", "result": 95, "unit": "%"}, {"measurement": "remaining activity at 1 µM", "setting": "NEK2(h)", "result": 97, "unit": "%"}, {"measurement": "remaining activity at 1 µM", "setting": "NUAK2(h)", "result": 101, "unit": "%"}, {"measurement": "remaining activity at 1 µM", "setting": "[1]", "result": 97, "unit": "%"}, {"measurement": "remaining activity at 1 µM", "setting": "[2]", "result": 93, "unit": "%"}, {"measurement": "remaining activity at 1 µM", "setting": "PI3KC2a(h)", "result": 94, "unit": "%"}, {"measurement": "remaining activity at 1 µM", "setting": "PKCα(h)", "result": 83, "unit": "%"}, {"measurement": "remaining activity at 1 µM", "setting": "Plk3(h)", "result": 99, "unit": "%"}, {"measurement": "remaining activity at 1 µM", "setting": "Rsk2(h)", "result": 82, "unit": "%"}, {"measurement": "remaining activity at 1 µM", "setting": "SAPK2a(h)", "result": 84, "unit": "%"}, {"measurement": "remaining activity at 1 µM", "setting": "SAPK4(h)", "result": 97, "unit": "%"}, {"measurement": "remaining activity at 1 µM", "setting": "TAO3(h)", "result": 65, "unit": "%"}, {"measurement": "remaining activity at 1 µM", "setting": "TRB2(h)", "result": 65, "unit": "%"}, {"measurement": "remaining activity at 1 µM", "setting": "Tie2 (h)", "result": 93, "unit": "%"}, {"measurement": "remaining activity at 1 µM", "setting": "Tie2(R849W)(h)", "result": 86, "unit": "%"}, {"measurement": "remaining activity at 1 µM", "setting": "TrkA(h)", "result": 101, "unit": "%"}, {"measurement": "remaining activity at 1 µM", "setting": "ULK3(h)", "result": 94, "unit": "%"}, {"measurement": "remaining activity at 1 µM", "setting": "WNK4(h)", "result": 113, "unit": "%"}, {"measurement": "remaining activity at 1 µM", "setting": "ZAK(h)", "result": 99, "unit": "%"}]}]}
